Laboratory results: patent US9155289B2, “Methods concerning PPAR delta and antagonists thereof” (University Court of the University of Dundee, priority 2008, dated 2015)

What was measured:
[1] = cited from earlier work
human PPARδ = settings: mouse, in vivo
Procedure: FIG. 2(a) illustrates Western blot analyses of 10 μg of total protein extract of transgenic mice fed I3C or control diet in an experiment in which PPARδ expression was induced in mice harbouring CYP1A1-controlled PPARδ by oral administration of indole-3-carbinol (I3C) for seven days (top); and an experiment in which PPARδ was expressed by feeding of I3C and activated by additional administration of the specific PPARδ ligand GW-501516 (GW) for 25 days (bottom); FIG. 2(b) is a close-up photograph of the macroscopic phenotype of mice receiving both I3C and GW-501516 administration; FIG. 2(c) is a photograph of standard H&E histology stains prepared from abdominal skin of the animals shown in FIG. 2(a);
FIG. 3 illustrates experimental results from arising from the inducible expression of PPARδ in mouse epidermis. FIG. 3(a) Cis-regulatory elements in the rat CYP1A1 promoter used to drive inducible expression of human PPARδ. Upper panel: Map of the sebaceous-specific G/C-box element and the AHR-responsive DXE/XRE cluster in the cyp1A1 promoter as well as the human K5 promoter. Bottom panel: ClustalW alignment of promoters identified by a BLAST search using the 20 bp G/C element of the Cyp1A1 promoter. All of the genes shown were found in the top 10% percentile of all transcripts expressed in human sebaceous glands (GDS3215 at the NCBI GEO website www.ncbi.nlm.nih.gov/geo/). FIG. 3(b) illustrates immunohistochemistry using anti-PPARδ of mice transgenic for human PPARδ driven by the rat CYP1A promoter (PPARδ TG), as well as wild type mice. Magnification 200×; FIG. 3(c) illustrates immunohistochemistry of abdominal skin samples from PPARδ transgenic mice taken at the indicated times after initiation of PPARδ activation mediated by administration of the synthetic ligand GW501516 in the chow; FIG. 3(d) illustrates PPARδ immunohistochemistry 48 h after topical application of indole-3-carbinole (I3C) to the skin of PPARδ transgenic mice at 200× (left) and 400× (right) magnification; […]

PPARδ transgenic mice = assay: Skin phenotype in PPARδ transgenic mice after PPARδ activation; type: in vivo, mouse
Procedure: FIG. 5. Skin phenotype in PPARδ transgenic mice twenty days after beginning of GW501516 (GW) administration. (FIGS. 5a-5c) Gross morphology, (FIGS. 5d-5e) H&E histology of control mice not treated with GW (5d), or fourteen days after induction (5e-5g). Magnification 200× (5d,5e) or 400× (5f). (5g) Immunostaining for Ki67 of skin from PPARδ transgenic mice maintained in the absence (left) or presence (right) of GW. Magnification 200×. (5h) Induction of skin disease by topical application of either 0.3% of indole-3-carbinole (I3C, left) or I3C plus 0.3% GW501516 once daily to shaved abdominal skin. Gross macroscopic phenotype (top) and H&E histology of treated skin (bottom) was documented 10 days after beginning of treatment; and
Mice were generated which are inducible to overexpress human PPARδ in the skin and a wide range of other tissues and organs, including the spleen, under the control of the CYP1A1 promoter. The CYP1A1 dioxin-responsive promoter was initially chosen because it is known to be transactivated by the aryl hydrocarbon receptor (AHR) upon binding of specific AHR agonist ligands. (Campbell et al., Regulation of the CYP1A1 promoter in transgenic mice: an exquisitely sensitive on-off system for cell specific gene regulation, J. Cell Science, 1996, 109 (Pt. 11), 2619-2625).
The mice were generated by cloning full-length human PPARδ downstream of the human CYP1A1 promoter. Plasmids encoding human PPARδ were prepared by the following protocol. The coding sequences of PPARδ, were amplified using primers PRMG15 (5′-[…]-3′) and PR MG3 (5′-[…]-3′), respectively (XbaI-sites underlined, ATG start codon in bold). The PCR products were cleaved with XbaI and cloned in plasmid pUHD10-3 (M. Gossen, unpublished, Genbank accession number U89931) creating pMGD7 (PPARδ). The integrity of the inserts were confirmed by sequencing and cleaved out using BamHI and ligated into plasmid pAHIR1-β-gal (Campbell, 1996} cleaved with BglII, resulting in the plasmid pMGD72 (PPARδ). The proper orientations of the inserts were confirmed by restriction endonuclease analysis and sequencing. Transgenic mice were generated by microinjection of the expression unit (NotI fragment) of the plasmid pMGD72 into pro-nuclei of C57BL/J6×CBA F1 fertilized eggs. Mice were maintained under standard animal house conditions.
In a first study, indole-3-carbinole (I3C) introduced into the chow at a final concentration of 0.5% (w/w), for one week, was used to induce expression of PPARδ. The resulting translated protein was conformationally activated by the specific PPARδ ligand GW-501516 (2-Methyl-4-((4-methyl-2-(4-trifluoromethylphenyl)-1,3-thiazol-5-yl)-methylsulfanyl)phenoxy-acetic acid), added in powdered form to the chow at a concentration of 0.003% (w/w) for an additional 16 days. This activation mechanism is illustrated in FIG. 1. Thus, PPARδ can be transcriptionally activated and conformationally activated by concurrent feeding with I3C and GW-501516.

unmodified mice = assay: Control experiments in unmodified mice; type: in vivo, mouse; settings: GW-501516 administered to unmodified mice
Procedure: The mice were prepared for the purposes of studies concerning a wide range of cancer phenotypes and liver fat accumulation.

In the case of `COC(=O)c1sccc1S(=O)(=O)Nc1ccc(Nc2ccccc2)cc1OC` [GSK 0660, methyl 3-({[2-(methoxy)-4-phenyl]amino}sulfonyl)-2-thiophenecarboxylate], the in vivo bioavailability [1] is listed as “lacks in vivo bioavailability”.
With `Cc1cc(SCc2sc(-c3ccc(C(F)(F)F)cc3)nc2C)ccc1OCC(=O)O` [GW-501516, 2-Methyl-4-((4-methyl-2-(4-trifluoromethylphenyl)-1,3-thiazol-5-yl)-methylsulfanyl)phenoxy-acetic acid] the “PPARδ expression in the epidermis” value (human PPARδ) was “strong expression of PPARδ in the epidermis”, the “skin phenotype (scaling, erythema, skin thickening)” value (PPARδ transgenic mice; GW501516 alone, without I3C, as early as seven days after initiation) was “scaling, erythema formation, and skin thickening was notable in all PPARδ transgenic mice” and the “skin phenotype (scaling, skin thickening, inflammation)” value (PPARδ transgenic mice; PPARδ induced by I3C feeding (0.5% w/w chow), activated by GW-501516 0.003% w/w in chow, after 25 days) was “a dramatic skin phenotype was observed”. For the same compound, the skin phenotype (PPARδ transgenic mice; topical I3C plus additional topical GW501516 (0.3% each, once daily, 10 days)) was “effectively replicated” and the psoriatic symptoms (unmodified mice) was “no psoriatic symptoms were observed”.
For `OCc1c[nH]c2ccccc12` [I3C, indole-3-carbinole], the “PPARδ expression in skin” value (human PPARδ) was “inducible”, the “PPARδ expression in skin and lymph nodes” value (human PPARδ) was “strong induction of PPARδ expression” and the skin changes (PPARδ transgenic mice; prolonged chow with I3C 0.5% w/w, in the absence of PPARδ activation) was “caused no skin changes”. The skin phenotype (PPARδ transgenic mice; topical I3C alone to the skin) was “unable to elicit a phenotype”.
